In brackets after ≈: the same amount, converted by molar mass. Several values for one entry are separate records, joined by “and”; a condition that tells them apart may be missing. Identical values can stand only once. Like-named read-outs stand apart in the source and are kept apart here. Square brackets hold non-standard residues; d marks the D form. Peptide text beside a SMILES is read from it. * marks the point of attachment. X1 = COc1cccc2c1C(=O)c1c(O)c3c(c(O)c1C2=O)CC(O)(C(=O)CO)CC3OC1CC(N*)C(O)C(C)O1; pGlu = O=C1CC[CH](C(=O)O)N1
Tests used:
[1] = system: conditioned medium from MCF7/6 mammary carcinoma cells
[2] = system: MCF7/6 human mammary carcinoma cells; assay: Accumulation in MCF7/6 tumor cells (HPLC of cell extracts)
Protocol: After various times, the accumulation of the prodrugs and of their fluorescent metabolites were determined by HPLC after extraction of the products at basic pH according to a method developed in the laboratory. Accumulations, expressed in μg/mg of cellular proteins, were compared with those of DNR and of DOX as well as with those of L-Leu-DNR and L-Leu-DOX. The metabolites were identified by determining the retention times of reference products synthesized in the laboratory.
(§7) After various times, the accumulation of the prodrugs and of their fluorescent metabolites was determined by HPLC after extraction of the products at basic pH according to a method developed in the laboratory. Accumulations, expressed in μg/mg of cellular proteins, were compared with those of DOX and of L-Leu-DOX. The metabolites were identified by determining the retention times of reference products synthesized in the laboratory.

[3] = system: MRC5 fibroblast cells; assay: Accumulation in MRC5 normal fibroblast cells (HPLC of cell extracts); details: for Accumulation after 6 h, DOX / Accumulation after 6 h, Leu-DOX: 10 μg eq. DOX/ml
Protocol: At various times, the accumulation of the prodrugs and of their fluorescent metabolites was determined by HPLC after extraction of the products at basic pH according to a method developed in the laboratory. Accumulations, expressed in μg/mg of cellular proteins, were compared with those of DNR and of L-Leu-DNR. The metabolites were identified by determining the retention times of reference products synthesized in the laboratory.
as §7

[4] = system: MCF7/6 human mammary carcinoma cells; assay: Cytotoxicity with respect to MCF7/6 tumor cells (72 h, Bradford protein); details: for IC50: Homo sapiens
Protocol: (§8) After 72 hours, the cells are incubated for 48 hours in the absence of anthracycline, and the cytotoxicity is determined by measuring the cellular proteins by Bradford's technique. […] The experimental points are adjusted to a sigmoid curve which enables the point of inflection, corresponding to the dose at which half of the cells survive (IC50), to be calculated.
(§9) After 72 hours, the cells are incubated for 48 hours in the absence of the anthracycline, and the cytotoxicity is determined by measuring the cellular proteins by Bradford's technique. […] The experimental points are adjusted to a sigmoid curve which enables the point of inflection, corresponding to the dose at which half of the cells survive (IC50), to be calculated.

[5] = system: MRC5 fibroblast cells; assay: Cytotoxicity with respect to MRC5 normal cells (72 h, Bradford protein); details: for IC50: Homo sapiens
Protocol: as §8, §9

[6] = system: conditioned medium from MCF7/6 mammary carcinoma cells; assay: Degradation in conditioned medium from MCF7/6 mammary carcinoma cells (HPLC)
[7] = system: female NMRI mice; assay: In vivo acute toxicity, intraperitoneal route, 5 consecutive days; set-up: species or system mouse; details: i.p. on 5 consecutive days
Protocol: (§1) In the in vivo study of the acute toxicity of a medicinal product, determination of the median lethal dose (lethal dose for 50% of the animals or LD50) occupies an important place. […] The LD50 is a simple test in which increasing amounts of the test product are administered intravenously (i.v.) in a single injection and intraperitoneally (i.p.) in 5 injections, one injection daily for 5 consecutive days. The mortality of the animals is monitored as a function of time. At the end of the observation period, usually 30 days, the value of the LD50 is obtained by linear regression of the percentage mortality (on a probit scale) as a function of the logarithm of the dose administered (O. K. Chan and A. W. Hayes, Principles and methods for acute toxicity and eye irritancy, in Principles and methods of toxicology, Second edition. Ed. by A. W. Hayes, Raven Press, New York, USA (1989), pp. 169-220; D. Deprez-De Campeneere and A. Trouet. DNA-Anthracycline Complexes. I. Toxicity in mice and chemotherapeutic activity against L1210 Leukaemia off Daunorubicin-DNA and Adriamycin-DNA, Eur. J. Cancer, 16 (1980), pp. 981-986; H. E. Skipper, L. H. Schmidt, A. Goldin and J. M. Venditti. A manual on quantitative drug evaluation in experimental tumor systems, Cancer Chemother. Rep. 17 (1.962), pp. 1-178).
(§2) The acute toxicity of these two drugs was studied via the i.v. and i.p. routes on a single strain of mouse. Female NMRI mice (nonconsanguineous SPF-Han, approximately 5 weeks old and of mean weight 14.6 grams, supplied by IFFA-CREDO Belgium) remained in quarantine for one week.
(§3) Injections were performed systematically in the morning (single injection into the caudal vein for the i.v. route and injections on 5 consecutive days into the peritoneum for the i.p. route), using 1.0 ml syringes and sterile 30 G (i.v.) and 27 G (i.p) needles. All handling of animals was performed with gloves, and maintenance of the animals was performed systematically every week.
(§4) DNR was injected i.v. at doses of 10, 15, 20, 25, 30 and 35 mg/kg and i.p. at doses of 2.0; 2.5; 3.0 and 3.5 mg/kg.
(§5) The concentrations of the solutions were verified by spectrophotometry.
(§6) From the day of injection (DO) onwards, the mice were monitored clinically, with a daily record of dead mice. The weight of the mice was measured almost every day. The observation period was extended beyond one month so that the signs of late toxicity could be spotted more readily. At the end of the study, the surviving mice were sacrificed, according to the standards pertaining to animal experiments (D. B. McGregor. Ethics in experiments on animals, in Experiments in toxicology, First edition. Ed. by D. Anderson and D. M. Conning. The Royal Society of Chemistry and The Universities Press. Belfast, Ireland (1988), pp. 512-522).

[8] = system: female NMRI mice; assay: In vivo acute toxicity, intravenous route; set-up: species or system mouse
Protocol: as §1, §2, §3, §4, §5, §6

[9] = system: conditioned medium from HepG2 hepatocarcinoma cells; assay: Degradation in conditioned medium from HepG2 hepatocarcinoma cells; details: β-Ala-Leu-Ala-Leu-DNR incubated at 37 C for 2 hours in HepG2 conditioned medium
[10] = β-Ala-Leu-Ala-Leu-DOX incubated at 37 C in MCF7/6 conditioned medium concentrated 20 times, share of each species

COc1cccc2c1C(=O)c1c(O)c3c(c(O)c1C2=O)CC(O)(C(C)=O)CC3OC1CC(NC(=O)C(CC(C)C)NC(=O)C(C)NC(=O)C(CC(C)C)NC(=O)C(C)N)C(O)C(C)O1 [L-Ala-L-Leu-L-Ala-L-Leu-DNR]
Hydrolysis, MCF-7/6 Conditioned Medium [1]: +

COc1cccc2c1C(=O)c1c(O)c3c(c(O)c1C2=O)C[C@@](O)(C(=O)CO)C[C@@H]3O[C@H]1C[C@H](N)[C@H](O)[C@H](C)O1 [DOX, doxorubicin]
Accumulation after 6 h, DOX ([2]; MCF7/6 cells, 10 μg eq. DOX/ml): 6.9 μg/mg cellular prot. and 6.90 μg/mg cellular prot.
Accumulation after 6 h, DOX ([3]; MRC5 cells): 11.20 μg/mg cellular prot.
intracellular levels of the active therapeutic agent in normal cells compared with tumor cells ([3]; MRC5 versus MCF7/6, 6 h incubation): twice as high
IC50 ([4]; MCF7/6, 72 h, read-out: IC50 (72 h)): 0.0025 µg/mL (≈ 0.0046 µM)
IC50 ([5]; MRC5, 72 h, read-out: IC50 (72 h)): 0.018 µg/mL (≈ 0.0331 µM)

COc1cccc2c1C(=O)c1c(O)c3c(c(O)c1C2=O)CC(O)(C(=O)CO)CC3OC1CC(NC(=O)C(CC(C)C)NC(=O)C(C)N)C(O)C(C)O1 [L-Ala-L-Leu-DOX]
Starting material or Metabolite, After 2 hours [6, 10]: <1%
Starting material or Metabolite, Time 0 [6, 10]: 0%

COc1cccc2c1C(=O)c1c(O)c3c(c(O)c1C2=O)CC(O)(C(C)=O)CC3OC1CC(NC(=O)C(CC(C)C)NC(=O)C(C)NC(=O)C(CC(C)C)NC(=O)C(C)NC(=O)CCC(=O)O)C(O)C(C)O1 [Succ-L-Ala-L-Leu-L-Ala-L-Leu-DNR]
Hydrolysis, MCF-7/6 Conditioned Medium [1]: −

COc1cccc2c1C(=O)c1c(O)c3c(c(O)c1C2=O)C[C@@](O)(C(=O)CO)C[C@@H]3O[C@H]1C[C@H](NC(=O)[C@H](CC(C)C)NC(=O)[C@H](C)NC(=O)[C@@H](N)CC(C)C)[C@H](O)[C@H](C)O1 [L-Leu-L-Ala-L-Leu-DOX]
Starting material or Metabolite, After 2 hours [6, 10]: <1%
Starting material or Metabolite, Time 0 [6, 10]: 0%

COc1cccc2c1C(=O)c1c(O)c3c(c(O)c1C2=O)CC(O)(C(C)=O)CC3OC1CC(NC(=O)C(CC(C)C)NC(=O)C(C)NC(=O)C(CC(C)C)NC(=O)C(C)NC(=O)C(N)CC(C)C)C(O)C(C)O1 [D-Leu-L-Ala-L-Leu-L-Ala-L-Leu-DNR]
Hydrolysis, MCF-7/6 Conditioned Medium [1]: +

β-Ala-L-Leu-L-Ala-L-Leu-COU
Hydrolysis, MCF-7/6 Conditioned Medium [1]: +

COc1cccc2c1C(=O)c1c(O)c3c(c(O)c1C2=O)C[C@@](O)(C(C)=O)C[C@@H]3O[C@H]1C[C@H](N)[C@H](O)[C@H](C)O1 [DNR, daunorubicin]
day on which no mouse is surviving ([7]; 2.0 mg/kg): 29 days
mice dead out of 7 at first mortality ([7]; 2.0 mg/kg, day 11): 1
mice surviving on day 43 ([7]; 2.5 mg/kg): one
mice dead out of 7 at first mortality ([7]; 2.5 mg/kg, day 11): 2
day on which no mouse is surviving ([7]; 3.0 mg/kg): 19 days
mice dead out of 7 at first mortality ([7]; 3.0 mg/kg, day 9): 2
day on which no mouse is surviving ([7]; 3.5 mg/kg): 12 days
mice dead out of 7 at first mortality ([7]; 3.5 mg/kg, day 7): 1
mortality from day ([7]; dose of 2.0 mg/kg): 11 days
mortality from day ([7]; dose of 2.5 mg/kg): 11 days
mortality from day ([7]; dose of 3.0 mg/kg): 9 days
mortality from day ([7]; dose of 3.5 mg/kg): 7 days
weight loss, % of the initial weight ([7]; irrespective of the dose (2.0-3.5 mg/kg)): 30%
maximum accumulation ([2]; MCF7/6 cells, 10 μg/ml, after 6 hours of incubation): ~15 μg/mg of cellular proteins
Intracellular concentration, Starting material ([2]; MCF7/6 cells, 6 hours of incubation, 10 μg eq. DNR/ml): 14.9 μg/mg cellular proteins
ratio of the intracellular DNR levels (MCF7/6 to MRC5) ([2]; cells incubated in the presence of the compound): 0.19
accumulation plateau ([3]; MRC5 cells, 10 μg/ml, after 6 hours): ~76 μg/mg of cellular proteins
Intracellular concentration, Starting material ([3]; MRC5 cells, 6 hours of incubation, 10 μg eq. DNR/ml): 77.4 μg/mg cellular proteins
IC50 ([4]; MCF7/6): 0.09 ± 0.004 µg/mL (≈ 0.171 µM)
mice dying ([8]; single i.v., 25 mg/kg, groups of 7, days 12 to 42): 6
mortality begins on day ([8]; single i.v., 30 mg/kg): 7 days
mice dead out of 7 at first mortality ([8]; single i.v., 30 mg/kg, day 7): 1
mortality begins on day ([8]; single i.v., 35 mg/kg): 6 days
mice dead out of 7 at first mortality ([8]; single i.v., 35 mg/kg, day 6): 2
mortality ([8]; single i.v., 10, 15 and 20 mg/kg): no mortality
day of maximal mean weight loss ([8]; single i.v., 10-35 mg/kg): 7 days
weight recovery of surviving mice ([8]; single i.v., 30 and 35 mg/kg, 30 days after injection): do not recover their initial weight
IC50 ([5]; MRC5): 0.01 ± 0.006 µg/mL (≈ 0.019 µM)

COc1cccc2c1C(=O)c1c(O)c3c(c(O)c1C2=O)C[C@@](O)(C(=O)CO)C[C@@H]3O[C@H]1C[C@H](NC(=O)[C@@H](N)CC(C)C)[C@H](O)[C@H](C)O1 [L-Leu-DOX, N-L-leucyldoxorubicin]
Accumulation after 6 h, DOX ([2]; MCF7/6 cells, 10 μg eq. DOX/ml): 0.25 μg/mg cellular prot.
Accumulation after 6 h, Leu-DOX ([2]; MCF7/6 cells, 10 μg eq. DOX/ml): 1.10 μg/mg cellular prot.
accumulation, times less than DOX ([2]; MCF7/6 cells, after 6 hours): 6 times
Starting material or Metabolite, After 2 hours [6, 10]: 68%
Starting material or Metabolite, Time 0 [6, 10]: 0%
Accumulation after 6 h, DOX ([3]; MRC5 cells): 0.3 μg/mg cellular prot.
Accumulation after 6 h, Leu-DOX ([3]; MRC5 cells): 1.4 μg/mg cellular prot.
Accumulation after 6 h, DOX ([3]; MRC5 cells, listed as Leu-DOX): 0.30 μg/mg cellular prot.
Accumulation after 6 h, Leu-DOX ([3]; MRC5 cells, listed as Leu-DOX): 1.40 μg/mg cellular prot.
IC50 (72 h) ([4]; MCF7/6 cells): 0.020 µg/mL (≈ 0.0305 µM)
times less cytotoxic than DOX ([4]; MCF7/6 cells, 72 hours): 8 times
IC50 (72 h) ([5]; MRC5 cells): 0.30 µg/mL (≈ 0.457 µM)
times less cytotoxic than DOX ([5]; MRC5 cells, 72 hours): 17 times

COc1cccc2c1C(=O)c1c(O)c3c(c(O)c1C2=O)CC(O)(C(C)=O)CC3OC1CC(NC(=O)C(CC(C)C)NC(=O)CNC(=O)C(CC(C)C)NC(=O)CN)C(O)C(C)O1 [Gly-L-Leu-Gly-L-Leu-DNR]
Hydrolysis, MCF-7/6 Conditioned Medium [1]: +

COc1cccc2c1C(=O)c1c(O)c3c(c(O)c1C2=O)C[C@@](O)(C(C)=O)C[C@@H]3O[C@H]1C[C@H](NC(=O)[C@H](CC(C)C)NC(=O)[C@H](C)N)[C@H](O)[C@H](C)O1 [L-Ala-L-Leu-DNR]
main metabolites found, % of the total fluorescence [9]: 8%
Starting material or Metabolite, Time 0 ([6]; β-Ala-Leu-Ala-Leu-DNR incubated at 37 C in MCF7/6 conditioned medium concentrated 20 of 40 times, share of each species by HPLC): 0%
Starting material or Metabolite, After 1 hour ([6]; β-Ala-Leu-Ala-Leu-DNR incubated at 37 C in MCF7/6 conditioned medium, share of each species by HPLC, 1 hour): <1%
Starting material or Metabolite, After 2 hours ([6]; β-Ala-Leu-Ala-Leu-DNR incubated at 37 C in MCF7/6 conditioned medium, share of each species by HPLC): <1%

COc1cccc2c1C(=O)c1c(O)c3c(c(O)c1C2=O)CC(O)(C(=O)CO)CC3OC1CC(NC(=O)C(CC(C)C)NC(=O)C(C)NC(=O)C(CC(C)C)NC(=O)C(C)NC(=O)C2CCC(=O)N2)C(O)C(C)O1 [pGlu-L-Ala-L-Leu-L-Ala-L-Leu-DOX] ([pGlu]ALAL-X1; configuration not given here)
Hydrolysis, MCF-7/6 Conditioned Medium [1]: −

Reference: patent publication US7951772B2, “Tumor-activated prodrug compounds and treatment” (La Region Wallonne, priority 1994, dated 2011)
